Test results: paper PMC8769072, “Proteome‐scale mapping of binding sites in the unstructured regions of the human proteome” (Molecular Systems Biology, 2022)

Test system: immobilized GST-tagged bait protein domains
Test: ProP-PD phage selections (HD2 P8, sublibraries, HD2 P3, HD1 P8) with NGS and confidence level
Type: binding, human
Conditions: for HD confidence / HD count proportions / HD mean counts: library HD
[1] = bait CALM1_EF-hand__P0DP23_2_149, library HD2, benchmarking set of validated motif instances, TRUE = motif instance recovered in the ProP-PD selection
[2] = bait PABP-B_PABP__P11940_544_623, HD2 library, confidence level (1-4) of best matching selected peptide
[3] = bait PABP-B_PABP__P11940_544_623, HD2 library, specificity score of best matching selected peptide
[4] = bait PABP-B_PABP__P11940_544_623, HD2 library, whether the validated benchmark motif instance was recovered in the ProP-PD selection (TRUE/FALSE)
[5] = library HD2, bait WDR5_WD_1234567_P61964_21_334, validated benchmark motif instance, in_library_check TRUE, TRUE/FALSE = instance recovered in ProP-PD selection
[6] = HD2 library, bait CALM1_EF-hand__P0DP23_2_149, benchmark motif instance, in_library_check FALSE, in_library_coverage 0
[7] = HD2 library, bait TLN1_PTB__Q9Y490_309_401, known motif instance of the benchmarking set found (TRUE) or not found (FALSE) among selected peptides
[8] = bait PTK2_Focal-AT__Q05397_891_1050, HD2 library, whether the validated benchmark motif instance was recovered in the ProP-PD selection (TRUE/FALSE)
[9] = bait ANKRA2_Ank__Q9H9E1_142_313, library HD2 P8
[10] = library HD2, bait Keap1_KELCH__Q14145_321_609, whether the validated benchmark motif instance was recovered in the ProP-PD selection (TRUE/FALSE)
[11] = library HD2, bait EPS15_EH__P42566_121_215, best matching peptide
[12] = library HD2, bait EPS15_EH__P42566_121_215, confidence level of best matching peptide (4 High, 2-3 Medium, 1 Low)
[13] = library HD2, bait EPS15_EH__P42566_121_215, whether the validated benchmark motif instance was recovered in the ProP-PD selection (TRUE/FALSE)
[14] = bait SIN3A_PAH__Q96ST3_295_383, HD2 library, whether the validated benchmark motif instance was recovered in the ProP-PD selection (TRUE/FALSE)
[15] = HD2 library, bait TNKS_TANK-peptide-bind__O95271_174_649, known motif instance of the benchmarking set found (TRUE) or not found (FALSE) among selected peptides
[16] = bait ANKRA2_Ank__Q9H9E1_142_313
[17] = bait ANKRA2_Ank__Q9H9E1_142_313, mean normalised NGS counts
[18] = bait ANKRA2_Ank__Q9H9E1_142_313, mean raw NGS counts, all selections

KRRWKKNFIAVSAANRFKKISSSGAL [MYLK2] was tested, and the motif_found [1] was “FALSE”.
KSTLNPNAKEFNPRSF was tested, and the best_confidence [2] was 2, the best_specificity [3] was 1 and the motif_found [4] was “TRUE”.
In the case of KTAEKSDFEAVEALMSMSCSWKSD [KLF10 39-48], the motif_found (HD2 library, bait SIN3A_PAH__Q96ST3_295_383, benchmark motif instance, in_library_check FALSE, in_library_coverage 0) is reported as “FALSE”.
For LAVNPTGCARSEPKMSAHVKR, the motif_found [5] was “FALSE”.
“LAYLRSHKDEVVKIQSLARMHQARKRYRDRLQYF [IQGAP1 806-825]” was tested, and the motif_found [6] was “FALSE”.
LDEAFSRLAQSRTNPQ was tested, and the best_specificity (bait AP2B1_adaptin__P63010_700_937, library HD2, best matching peptide) was 1 and the best_confidence (bait AP2B1_adaptin__P63010_700_937, library HD2, confidence level of best matching peptide (4 = High, 2 or 3 = Medium, 1 = Low)) was 2.
For LDPDKPTNFTNPVYATLYMGGH, the motif_found [7] was “FALSE”.
LELDRLMASLSDFRVQ was tested, and the best_confidence (bait PTK2_Focal-AT__Q05397_891_1050, HD2 library, confidence level (1-4) of best matching selected peptide) was 2, the best_specificity (bait PTK2_Focal-AT__Q05397_891_1050, HD2 library, specificity score of best matching selected peptide) was 1 and the motif_found [8] was “TRUE”.
LETKVFPRPVLPSLTV showed a p3_HD2 confidence (bait ANKRA2_Ank__Q9H9E1_142_313, library HD2 P3) of 2, a p3_HD2 count proportions (bait ANKRA2_Ank__Q9H9E1_142_313, library HD2 P3, mean normalised NGS counts) of 0.06348 and a p3_HD2 mean counts (bait ANKRA2_Ank__Q9H9E1_142_313, library HD2 P3, mean raw NGS counts, all selections) of 1066. The HD2 confidence [9] was 4, the HD2_nc confidence (bait ANKRA2_Ank__Q9H9E1_142_313, library HD2 P8 nucleocytoplasmic) was 3 and the HD2_nc count proportions (bait ANKRA2_Ank__Q9H9E1_142_313, library HD2 P8 nucleocytoplasmic, mean normalised NGS counts) was 0.1009. The HD2_nc mean counts (bait ANKRA2_Ank__Q9H9E1_142_313, library HD2 P8 nucleocytoplasmic, mean raw NGS counts, all selections) was 4420.0.
Work on LFCQNLPPPLPPKKYA yielded a p3_HD2 confidence (bait CRK_SH3_1_P46108_124_198, HD2 P3 library, confidence level (4 = High, 2-3 = Medium, 1 = Low)) of 3, a p3_HD2 mean counts (bait CRK_SH3_1_P46108_124_198, HD2 P3 library, mean NGS counts over replicate selections) of 10444.0 and a p3_HD2 count proportions (bait CRK_SH3_1_P46108_124_198, HD2 P3 library, mean proportion of NGS counts) of 0.2023.
In the case of LFKSATTTVMNPKFAES-----, the motif_found [7] is reported as “FALSE”.
LHIKTHLDEETGEKTSITLD was tested, and the motif_found [10] was “FALSE”.
With LINVRKRNVESGEEELASKL the motif_found [10] was “FALSE”.
For “LKKLPSAVIALQRSFRSKRSKMLLEINRQK [IQCB1 321-336]”, the motif_found [6] was “FALSE”.
For LKNINSINFDNPVYQKTTEDEV, the motif_found [7] was “FALSE”.
LKVLVKAVLFACMLMRK was tested, and the motif_found (library HD2, bait CALM1_EF-hand__P0DP23_2_149, motif instance NOT in library (in_library_check FALSE, in_library_coverage 0)) was “FALSE”.
With LLSIHKVYEAVELLKSNHFYR [GEMIN5 992-998] the motif_found (HD2 library, bait EIF4E_eIF4E__P06730_1_217, benchmark motif instance, in_library_check FALSE, in_library_coverage 0) was “FALSE”.
LMINPTGCARSEPKILTHYKR was tested, and the motif_found [5] was “FALSE”.
With LNKYQGFIFDIVTK [SCN5A] the motif_found [1] was “FALSE”.
For LNPFLTKSSGDVHLSI, the best_specificity [11] was 1, the best_confidence [12] was 4 and the motif_found [13] was “TRUE”.
With LNPNAEVWGAPVLHLE the best_confidence [2] was 4, the best_specificity [3] was 1 and the motif_found [4] was “TRUE”.
LNQDFSGFQLLVDVALKRAAEM was tested, and the motif_found [14] was “FALSE”.
In the case of LPIPGTPPPNYDSLRLQP, the motif_found (bait NEDD4_WW_4_P46934_890_928, HD2 library, whether the validated benchmark motif instance was recovered in the ProP-PD selection (TRUE/FALSE)) is reported as “FALSE” and the motif_found (library HD2, bait YAP1_WW_1_P46937_169_207, validated benchmark motif instance, in_library_check TRUE, TRUE/FALSE = instance recovered in ProP-PD selection) is reported as “FALSE”.
In the case of LPLEFSDDLDVVGDGMQC, the motif_found [5] is reported as “FALSE”.
In the case of “LPLYTSPSLPNITLGLP,PLPLYTSPSLPNITLGLPATGPSA [HDAC4]”, the motif_found (bait ANKRA2_Ank__Q9H9E1_142_313, library HD2, benchmarking set of validated motif instances, TRUE = motif instance recovered in the ProP-PD selection) is reported as “TRUE”.
With LPRTQPDGTSVPGEPA the best_specificity (HD2 library, bait TNKS_TANK-peptide-bind__O95271_174_649, best matching selected peptide) was 1, the best_confidence (HD2 library, bait TNKS_TANK-peptide-bind__O95271_174_649, confidence level of best matching selected peptide) was 2 and the motif_found [15] was “TRUE”.
For LQDVQPSPINPFSAFF, the best_specificity [11] was 1, the best_confidence [12] was 2 and the motif_found [13] was “TRUE”.
LQLPSLDDQVIPARLP gave an HD confidence [16] of 3, an HD count proportions [17] of 0.001339 and an HD mean counts [18] of 12.75.
LQQSIAREPSAPSIPTPAYQ was tested, and the motif_found (library HD2, bait TSG101_UEV__Q99816_1_145, validated benchmark motif instance, in_library_check TRUE, TRUE/FALSE = instance recovered in ProP-PD selection) was “FALSE”.
“LQYFRDHINDIIKIQAFIRANKARDDYKTLINA [IQGAP1 836-854]” was tested, and the motif_found [6] was “FALSE”.
For “LRRGQILWFRGLNRIQTQIDVINTFQTGASFKGVLRRQNMGQHLDVKLVPSSSYIKVVKAFHSS [ATP2B4]”, the motif_found [1] was “FALSE”.
For LSELDRLLLELN, the motif_found [8] was “FALSE”.
LSKLDVLVLAASYIAH was tested, and the HD2_nucleus confidence (bait SIN3A_PAH__Q96ST3_295_383, library HD2 P8 nucleus) was 4.
LSKMQQNGYENPTYKFFEQMQN was tested, and the motif_found [7] was “FALSE”.
In the case of LSLGSAGERGEAEGCPPSREAE, the motif_found [15] is reported as “FALSE”.
In the case of LSSPLVPGNPFEEPTCINP, the motif_found [13] is reported as “FALSE”.
With LSVNAPEFYPSGYSSS the best_confidence [2] was 3, the best_specificity [3] was 1 and the motif_found [4] was “TRUE”.
For LSVSPARWAEEYLEQSEEK, the motif_found (bait PEX14_Pex14__O75381_16_84, HD2 library, whether the validated benchmark motif instance was recovered in the ProP-PD selection (TRUE/FALSE)) was “FALSE”.
LSWPDLLSDPSIVGSN showed an HD2-1mM_CaCl confidence (bait CALM1 EF-hand (P0DP23, 2-149), HD2 library selection with 1mM_CaCl, confidence level (4 = High, 2 or 3 = Medium, 1 = Low)) of 3 and an HD2 confidence (bait CALM1 EF-hand (P0DP23, 2-149), HD2 library selection, confidence level (4 = High, 2 or 3 = Medium, 1 = Low)) of 3.
In the case of LYKEATSTFTNITYRGT-----, the motif_found [7] is reported as “FALSE”.
Work on LYNFPQSPPAQYSPMH yielded an HD2_nc confidence (bait CEP55_EABR__Q53EZ4_160_217, HD2 P8 nucleocytoplasmic sublibrary, confidence level (4 = High, 2-3 = Medium, 1 = Low)) of 4, an HD2_nc mean counts (bait CEP55_EABR__Q53EZ4_160_217, HD2 P8 nucleocytoplasmic sublibrary, mean NGS counts over replicate selections) of 101.3 and an HD2_nc count proportions (bait CEP55_EABR__Q53EZ4_160_217, HD2 P8 nucleocytoplasmic sublibrary, mean proportion of NGS counts) of 0.001637.
LYPTDCPPSYEAVMGL gave a p3_HD2 confidence (bait NEDD4_WW_4_P46934_890_928, HD2 P3 library, confidence level (4 = High, 2-3 = Medium, 1 = Low)) of 3, a p3_HD2 mean counts (bait NEDD4_WW_4_P46934_890_928, HD2 P3 library, mean NGS counts over replicate selections) of 285.3 and a p3_HD2 count proportions (bait NEDD4_WW_4_P46934_890_928, HD2 P3 library, mean proportion of NGS counts) of 0.005597. It also gave an HD2_cytoplasm confidence (bait NEDD4_WW_4_P46934_890_928, HD2 P8 cytoplasm sublibrary, confidence level (4 = High, 2-3 = Medium, 1 = Low)) of 4.
In the case of MDDLDALLADLESTTSHIS, the motif_found [8] is reported as “FALSE”.
MDVFMKGLSKAKEGVVAAA [SNCA] was tested, and the motif_found [1] was “FALSE”.
With MSARPSLPPLPAKPAG the HD confidence [16] was 2, the HD2 confidence [9] was 2 and the HD count proportions [17] was 0.0001907. It also gave an HD mean counts [18] of 3.25.
MSIETLLEAARFLEWQAQQQ was tested, and the motif_found [14] was “FALSE”.
For MSSLYPSLEDLKVDQA, the HD confidence (bait PDCD6IP_Alix-V-domain__Q8WUM4_360_702) was 2, the p3_HD2 confidence (bait PDCD6IP_Alix-V-domain__Q8WUM4_360_702, library HD2 P3) was 3 and the p3_HD2 count proportions (bait PDCD6IP_Alix-V-domain__Q8WUM4_360_702, library HD2 P3, mean normalised NGS counts) was 0.4191. The p3_HD2 mean counts (bait PDCD6IP_Alix-V-domain__Q8WUM4_360_702, library HD2 P3, mean raw NGS counts, all selections) was 20392.666666666668, the HD2 confidence (bait PDCD6IP_Alix-V-domain__Q8WUM4_360_702, library HD2 P8) was 4 and the HD2_nc confidence (bait PDCD6IP_Alix-V-domain__Q8WUM4_360_702, library HD2 P8 nucleocytoplasmic) was 3. It also gave an HD2_nc count proportions (bait PDCD6IP_Alix-V-domain__Q8WUM4_360_702, library HD2 P8 nucleocytoplasmic, mean normalised NGS counts) of 0.343, an HD2_nc mean counts (bait PDCD6IP_Alix-V-domain__Q8WUM4_360_702, library HD2 P8 nucleocytoplasmic, mean raw NGS counts, all selections) of 24438.333333333332 and an HD count proportions (bait PDCD6IP_Alix-V-domain__Q8WUM4_360_702, mean normalised NGS counts) of 0.4404. The HD mean counts (bait PDCD6IP_Alix-V-domain__Q8WUM4_360_702, mean raw NGS counts, all selections) was 2175.8.
In the case of NATRQQQLEWDDSTLSY-----, the motif_found (library HD2, bait KLC1_TPR__Q07866_203_497, whether the validated benchmark motif instance was recovered in the ProP-PD selection (TRUE/FALSE)) is reported as “FALSE”.
